Earlier results in patent US20040265272A1, “Mammalian cell-infecting virus vector encoding epitope-bound beta2m and utilization thereof” (priority 2001, published 2004).

Tested on: CTL
Details: HLA-A24- or HLA-A26-restricted peptide; cancer patients

Row | Substance | CTL induction
1 | SART-1 690-698: HLA-A24-restricted peptide of the SART-1 antigen (EYRGFTQDF; UniProt O43290 690-698, looked up, fragment) | strongly induced CTL
2 | SART-1 736-744: HLA-A26-restricted peptide of the SART-1 antigen (KGSGKMKTE; UniProt O43290 736-744, looked up, fragment) | induced CTL in cancer patients with HLA-A2601, -A2602, or -A2603
